Here are results for one molecule from article PMC13371181, “A paracrine-to-autocrine shunt of GREM1 fuels colorectal cancer metastasis via ACVR1C” (Molecular Cancer, 2026).

The subject of one assay is SW480 cells. The assay can be described thus: Scratch assay, SW480. The note with it: SW480, scratch assay 48 h; n = 3 independent experiments. The assay is classed as cell-based, human. As for the experimental part: (§1) To investigate the effect of secreted GREM1 on CRC cells, an in vitro GREM1 secretion system was established using HEK293 cells. Stably GREM1-expressing cells (pcDNA3.1-GREM1) and empty-vector transfected cells (pcDNA3.1) were cultured in DMEM/F12 medium with 10% FBS until 40% confluence. After complete removal of the normal culture medium, HEK293-GREM1 and HEK293-Vec cells were continuously cultured in DMEM/F12 medium without FBS for 5 days before medium collection. GREM1 or Vector conditioned medium (GREM1-CM/Vec-CM) was then centrifuged at 1000 rpm for 30 min and the supernatant was collected for further study.
Cells were seeded into 6-well plates after centrifugation and digestion with 0.05% trypsin. When the cell density reached 90%, three vertical lines were scratched in each well with a 10 µL pipette tip and the floating cells were gently washed away with 1×PBS. Complete medium was added, and images of the scratch area were taken at 0 h. Three different fields of view were selected for each well. After photography, the medium was replaced with serum-free medium. Wound healing was documented at the same location after 24–48 h of incubation.

A further assay concerns HCT116-luc cells. As to the kind of experiment: Cecum-to-liver metastasis model, GREM1-CM-pre-treated HCT116-luc in NOG mice. The assay is classed as in vivo, human cells in NOG mice. The note with it: cecum wall, SB505124 10 mg/kg i.p. every other day, IVIS, n = 5 mice per group. The text has this:
To determine the role of the ACVR1C–SMAD2/3 axis in GREM1-mediated EMT in vivo, we harnessed HCT116 cells carrying a luciferase reporter (HCT116-luc), which stably express either shACVR1C or a scramble shRNA. These cells were pretreated with GREM1-CM prior to their subcutaneous transplantation into nude mice. […] These findings were further corroborated by IF staining of EMT markers, including E-CAD and SNAIL (Figs. 5E–G). As a complementary pharmacological approach, we inhibited ACVR1C-mediated SMAD2/3 activation using SB505124. […] Importantly, to investigate the impact of the ACVR1C–SMAD2/3 axis on metastasis, we injected GREM1-CM-pre-treated HCT116-luc cells, stably expressing either shACVR1C or scramble shRNA, into the tail vein of nude mice. […]
Figure S8. […] E-G, Representative IF images (E) and quantification (F, G) of E-CAD (green), SNAIL (red), and DAPI (blue) staining in tumors from the indicated groups. […] H, I, Representative IVIS images (H) and quantification (I) of NOG mice that were injected with HCT116-luc cells in the cecum wall and treated with either SB505124 or vehicle via abdominal injection. Liver metastases were imaged and quantified using the IVIS Lumina Imaging System (n = 5 mice per group). […] P values were calculated using one-way ANOVA with Bonferroni multiple-comparison test (B–D, F, and G) or two-tailed Student’s t-test (I).

A further assay concerns HCT116 and SW480 cells. As to the kind of experiment: EMT markers by immunoblotting and RT–qPCR. The assay is classed as cell-based, human. The note with it: GREM1-CM + GREM1 BAb, + SB505124 (1 µM) or + different concentrations of sb4 (sb4: immunoblotting). Here is the method: as §1
Protein was extracted from the cells with RIPA buffer (Beyotime, P0018) or NP40 lysis buffer (Beyotime, P0013F) and separated by SDS-PAGE, and transferred to polyvinylidene difluoride membranes. […] Band intensity was quantified using Fiji (ImageJ) by grayscale analysis.
Total RNA was extracted using Trizol reagent (Invitrogen, 15596026). […] The SYBR Green Premix Pro Taq HS qPCR Kit (Accurate Biology, AG11701) was then used to quantify mRNA expression according to the manufacturer’s instructions. All results were calculated using the 2^−ΔΔCt method. […]
In general terms: A western blot detects proteins with antibodies after separation by electrophoresis.

Each structure is given as a SMILES string. “Also recorded” adds a separate entry of the source.

For the molecule `Cc1cccc(-c2[nH]c(C(C)(C)C)nc2-c2ccc3c(c2)OCO3)n1` [SB505124], the “GREM1-CM-induced migration, effect of inhibitor” value in the assay with SW480 cells is listed as “abolished; also recorded: suppressed”. Besides, the liver metastasis result in the assay with HCT116-luc cells is on record as “significant reduction in liver metastasis; also recorded: markedly attenuated the metastatic phenotype induced by GREM1-CM”. In addition, the “GREM1-CM-induced EMT, effect of treatment” value with HCT116 and SW480 cells is “significantly blocked GREM1-CM–induced p-SMAD2/3 activation and EMT”.
